In US20150250785A1, “Tropomyosin-Related Kinase Inhibitors” (PFIZER LIMITED, priority 2012, published 2015) one finds IC50 data, which are given here for 3 compounds.

T1 sequence (P04629 441-796): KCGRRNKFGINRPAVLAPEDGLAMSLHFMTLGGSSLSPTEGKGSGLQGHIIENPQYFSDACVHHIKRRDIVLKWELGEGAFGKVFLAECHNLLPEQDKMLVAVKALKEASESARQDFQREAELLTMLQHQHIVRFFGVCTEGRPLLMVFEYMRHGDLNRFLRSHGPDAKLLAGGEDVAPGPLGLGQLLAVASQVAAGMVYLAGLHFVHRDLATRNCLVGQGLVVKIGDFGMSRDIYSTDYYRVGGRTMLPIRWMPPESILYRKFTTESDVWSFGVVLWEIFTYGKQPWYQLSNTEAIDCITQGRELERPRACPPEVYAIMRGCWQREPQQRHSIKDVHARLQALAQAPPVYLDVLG

This assay has as its target T1, TRKA (NTRK1) recombinant His-tagged cytoplasmic domain aa 441-796 (Homo sapiens, UniProt P04629).
T1 construct: aa 441-; 4 nM; 40 uM; 35 min; (NTRK1); 796; His; purchased Invitrogen PV3144
As to the kind of experiment: Isolated TRK enzyme assay (HTRF KinEASE-TK), PV3144 TrkA. The conditions noted are these: 4 nM enzyme, 40 uM ATP, 35 min, arithmetic mean where more than one reading. It counts as biochemical. The protocol: Isolated TRK Enzyme assays use the HTRF KinEASE-TK kit (Cisbio Cat#62TK0PEJ) with recombinant His-tagged cytoplasmic domains of each TRK receptor sourced from Invitrogen (see table below). This activity-assay measures the phosphorylation of tyrosine residues within a substrate from the HTRF kit which has been validated by Cisbio for a variety of tyrosine kinases including the TRK receptors.
0.5 mM stock solutions of test compounds are prepared and serially diluted in 100% DMSO. A standard curve using the compound of Example 135 disclosed in WO2005/116035 of 150 uM is also prepared on each test plate. High percentage effect (HPE) is defined by 150 uM (using the compound of Example 135 as disclosed in WO2005/116035) and 0% effect (ZPE) is defined by 100% DMSO. Greiner low volume black plates containing 0.2 ul of serially diluted compound, standard and HPE/ZPE are created using the Bravo nanolitre dispenser.
1× enzyme buffer is prepared from 5× Enzymatic Buffer from the Cisbio KinEASE TK kit using MilliQ water. The buffer is then supplemented with 10 mM MgCl and 2 mM DTT (both from Sigma). In the case of TRKB, the buffer is also supplemented with 125 nM Supplement Enzymatic Buffer (SEB) from the Cisbio kit.
2×FAC of enzyme and 2×FAC ATP diluted in 1× complete enzyme buffer is incubated at room temperature for 20 minutes to preactivate the enzyme. Following this preactivation step, 5 ul/well of enzyme+ATP mix is added using a Multidrop Micro to the assay plate, spotted with 0.2 ul 100% DMSO compound. […]
After the Detection Reagent addition, plates are covered and incubated at room temperature for 60 minutes. HTRF signal is read using an Envision reader, measured as a ratio of emissions at two different wavelengths, 620 nm and 665 nm. […] Test compound data are expressed as percentage inhibition defined by HPE and ZPE values for each plate. […]
Below are TrkA IC50 data generated using the PV3144 TrkA enzyme assay. Where more than one reading was taken, the arithmetic mean is presented.
Take `CC(C)c1nc(C(=O)c2ccnc(NC(=O)Cn3ccc(C(F)(F)F)n3)c2)c2cnccn12` [Example 3, N-{4-[(3-isopropylimidazo[1,5-a]pyrazin-1-yl)carbonyl]pyridin-2-yl}-2-[3-(trifluoromethyl)-1H-pyrazol-1-yl]acetamide]: the concentration for half-maximal inhibition (IC50) is 16.6 nM.

For the compound `CC(C)n1nc(C(=O)c2ccnc(NC(=O)Cc3ccc(C#N)cc3)c2)c2cnccc21` [Example 2, 2-(4-cyanophenyl)-N-{4-[(1-isopropyl-1H-pyrazolo[4,3-c]pyridin-3-yl)carbonyl]pyridin-2-yl}acetamide], the IC50 is 20.4 nM. The value for `CC(C)n1nc(C(=O)c2ccnc(NC(=O)Cc3coc(C4CC4)n3)c2)c2cnccc21` [Example 1, 2-(2-cyclopropyl-1,3-oxazol-4-yl)-N-{4-[(1-isopropyl-1H-pyrazolo[4,3-c]pyridin-3-yl)carbonyl]pyridin-2-yl}acetamide] was 21 nM.
